Experimental data from US20250313960A1, “CHOLINE HYDROXIDE FOR SALT DI[…] RENEWABLE FEEDSTOCK PROCESS” (Ecolab USA Inc., priority 2024, published 2025).

Columns and labels:
[1] = all temperatures; compared with NH4Cl; FIG. 2, literature values or calculated from solubility data
Procedure: The effectiveness of the salt to dissolve in the aqueous phase was determined by its critical relative humidity (CRH) at various temperatures. CRH was defined by the ratio of the partial pressure of water in the solution (Pw) to the partial pressure of pure water (P*w) shown below.
The CRH of the salt at a specified temperature was calculated from thermodynamic parameters found in the equation:
Where CRH was the critical relative humidity, T was the temperature, ΔHs was the heat of solution at infinite dilution, R is the gas constant, and A, B, and C are solubility parameters obtained from solubility as a function of temperature of the salt.
Data not available in the literature was experimentally performed in triplicate by an enthalpy experiment and a solubility experiment.
The enthalpy experiment was conducted by recording changes in temperature as different amounts of the salt dissolved in a set volume of water located in a calorimeter. The enthalpy of solution was calculated for each of the different amount of salt used. The enthalpy data was then fitted and extrapolated to determine enthalpy of solution at an infinite dilution.
The CRH values at room temperature were found in literature or calculated from the solubility data following the below equations.

[2] = in water; all tested temperatures; compared with NH4Cl; FIG. 1, literature and experimental data
Procedure: The solubility experiment was conducted by adding different amounts of salt to a set amount of water in glass vials. The amount of water used was such that the salt was mostly insoluble at room temperature. The vials were then heated up until all salts were dissolved. Temperature was recorded as each vial cooled. The temperature at which crystallization began was noted.

For C[N+](C)(C)CCO.[Cl-] [ChCl, choline chloride], the “critical relative humidity (CRH)” value [1] was “lower” and the “solubility as a function of temperature (mol salt/mol water)” value [2] was “more soluble than NH4Cl”.
